Assay results published in patent publication US20230183259A1, “Crystal Form Of Thiofuran Pyridazine Compound, Preparation Method Therefor And Application Thereof” (ZHEJIANG MEDICINE CO., LTD. XINCHANG PHARMACEUTICAL FACTORY, priority 2020, published 2023).

Legend:
[1] = acceleration test (stability); type: physicochemical; details: 40° C.±2° C., relative humidity 75%±5%
Description: (§1) Stability tests were performed on the samples of Examples 1, 2, 3, 4 and 5. […] Please refer to the results of the acceleration test (40° C.±2° C., relative humidity 75%±5%) of Table 1 and the results of the long-term stability test (25° C.±2° C., relative humidity 60%±10%) of Table 2.

[2] = long-term stability test; type: physicochemical; details: 25° C.±2° C., relative humidity 60%±10%
Description: as §1

(S)-2-(4-fluorophenyl)-4-(piperidine-3-aminomethyl)thieno[2,3-d]pyridazine-7-carboxamide hydrochloride [Example 110601-2]
yellow crystalline: appearance ([2]; 0 month, hydrochloride) | appearance ([2]; 3 months, hydrochloride) | appearance ([2]; 6 months, hydrochloride) | appearance ([2]; 9 months, hydrochloride) | appearance ([2]; 12 months, hydrochloride) | appearance ([2]; 18 months, hydrochloride) | appearance ([2]; 24 months, hydrochloride) | appearance ([2]; 36 months, hydrochloride)
100.1%: content(%) ([1]; 6 months, hydrochloride)
0.08%: Enantiomers (%) ([2]; 9 months, hydrochloride) | Enantiomers (%) ([2]; 24 months)
0.12%: Enantiomer (%) ([1]; 1 month, hydrochloride)
0.44%: Total relevant substances (%) ([1]; 2 months, hydrochloride)
99.9%: content(%) ([1]; 3 months, hydrochloride)
7.2%: Loss on drying (%) ([1]; 2 months, hydrochloride) | Loss on drying (%) ([1]; 6 months, hydrochloride) | Loss on drying (%) ([2]; 6 months, hydrochloride) | Loss on drying (%) ([2]; 18 months, hydrochloride) | Loss on drying (%) ([2]; 24 months, hydrochloride) | Loss on drying (%) ([2]; 36 months, hydrochloride)
0.1%: Enantiomer (%) ([1]; 2 months, hydrochloride)
0.42%: Total relevant substances (%) ([1]; 0 month, hydrochloride) | Total relevant substances (%) ([1]; 1 month, hydrochloride) | Total relevant substances (%) ([2]; 0 month, hydrochloride)
99.6%: Content (calculated by dried product )(%) ([2]; 9 months, hydrochloride)
0.03%: (%) Impurity B (%) ([1]; 1 month, hydrochloride) | Single largest impurity (%) ([1]; 1 month, hydrochloride) | Impurity C (%) ([1]; 2 months, hydrochloride) | Single largest impurity (%) ([2]; 3 months, hydrochloride) | ImpurityC(%) ([2]; 12 months, hydrochloride)
0.43%: Total relevant substances (%) ([2]; 36 months, hydrochloride)
0.02%: Impurity C (%) ([1]; 0 month, hydrochloride) | Single largest impurity (%) ([1]; 0 month, hydrochloride) | Impurity C (%) ([1]; 1 month) | Single largest impurity (%) ([1]; 2 months, hydrochloride) | Impurity C (%) ([1]; 3 months) | Single largest impurity (%) ([1]; 3 months, hydrochloride) | Impurity C (%) ([1]; 6 months) | Single largest impurity (%) ([1]; 6 months, hydrochloride) | ImpurityC(%) ([2]; 0 month, hydrochloride) | Single largest impurity (%) ([2]; 0 month, hydrochloride) | ImpurityC(%) ([2]; 3 months) | ImpurityC(%) ([2]; 6 months, hydrochloride) | Single largest impurity (%) ([2]; 6 months, hydrochloride) | ImpurityC(%) ([2]; 9 months) | ImpurityB(%) ([2]; 9 months, hydrochloride) | Single largest impurity (%) ([2]; 9 months, hydrochloride) | Single largest impurity (%) ([2]; 12 months) | Single largest impurity (%) ([2]; 18 months) | ImpurityC(%) ([2]; 18 months, hydrochloride) | ImpurityC(%) ([2]; 24 months) | Single largest impurity (%) ([2]; 24 months) | ImpurityC(%) ([2]; 36 months) | Single largest impurity (%) ([2]; 36 months) | ImpurityB(%) ([2]; 36 months, hydrochloride)
100.7%: Content (calculated by dried product )(%) ([2]; 18 months, hydrochloride)
0.06%: Enantiomers (%) ([2]; 36 months, hydrochloride)
99.7%: Content (calculated by dried product )(%) ([2]; 6 months, hydrochloride) | Content (calculated by dried product )(%) ([2]; 12 months, hydrochloride)
0.36%: Total relevant substances (%) ([2]; 12 months, hydrochloride) | Total relevant substances (%) ([2]; 18 months, hydrochloride)
99.5%: content(%) ([1]; 1 month, hydrochloride) | Content (calculated by dried product )(%) ([2]; 36 months, hydrochloride)
99.1%: content(%) ([1]; 2 months, hydrochloride) | Content (calculated by dried product )(%) ([2]; 24 months, hydrochloride)
0.25%: Impurity A (%) ([1]; 3 months, hydrochloride) | Impurity A (%) ([1]; 6 months, hydrochloride) | ImpurityA(%) ([2]; 6 months, hydrochloride)
0.00%: (%) Impurity B (%) ([1]; 0 month) | (%) Impurity B (%) ([1]; 3 months) | (%) Impurity B (%) ([1]; 6 months) | ImpurityB(%) ([2]; 0 month) | ImpurityB(%) ([2]; 3 months) | ImpurityB(%) ([2]; 6 months) | ImpurityB(%) ([2]; 18 months) | ImpurityB(%) ([2]; 24 months)
7.4%: Loss on drying (%) ([2]; 12 months, hydrochloride)
0.09%: Enantiomer (%) ([1]; 0 month, hydrochloride) | Enantiomer (%) ([1]; 3 months, hydrochloride) | Enantiomers (%) ([2]; 0 month, hydrochloride) | Enantiomers (%) ([2]; 3 months, hydrochloride)
0.31%: Impurity A (%) ([1]; 2 months, hydrochloride) | ImpurityA(%) ([2]; 36 months, hydrochloride)
yellow crystalline powder: appearance ([1]; 0 month) | appearance ([1]; 1 month) | appearance ([1]; 2 months) | appearance ([1]; 3 months) | appearance ([1]; 6 months)
7.3%: Loss on drying (%) ([1]; 0 month, hydrochloride) | Loss on drying (%) ([1]; 1 month, hydrochloride) | Loss on drying (%) ([1]; 3 months, hydrochloride) | Loss on drying (%) ([2]; 0 month, hydrochloride) | Loss on drying (%) ([2]; 3 months, hydrochloride) | Loss on drying (%) ([2]; 9 months, hydrochloride)
0.30%: ImpurityA(%) ([2]; 3 months, hydrochloride) | ImpurityA(%) ([2]; 18 months, hydrochloride) | ImpurityA(%) ([2]; 24 months, hydrochloride)
0.39%: Total relevant substances (%) ([2]; 3 months, hydrochloride)
0.38%: Total relevant substances (%) ([2]; 9 months, hydrochloride)
0.04%: (%) Impurity B (%) ([1]; 2 months, hydrochloride)
0.34%: Total relevant substances (%) ([1]; 3 months, hydrochloride) | Total relevant substances (%) ([2]; 6 months, hydrochloride)
0.01%: ImpurityB(%) ([2]; 12 months)
0.28%: Impurity A (%) ([1]; 1 month, hydrochloride)
0.07%: Enantiomer (%) ([1]; 6 months, hydrochloride) | Enantiomers (%) ([2]; 6 months, hydrochloride) | Enantiomers (%) ([2]; 12 months, hydrochloride) | Enantiomers (%) ([2]; 18 months, hydrochloride)
0.37%: Total relevant substances (%) ([2]; 24 months, hydrochloride)
0.27%: ImpurityA(%) ([2]; 9 months, hydrochloride)
0.33%: Total relevant substances (%) ([1]; 6 months, hydrochloride)
unchanged: Crystal form ([1]; 0 month) | Crystal form ([1]; 1 month) | Crystal form ([1]; 2 months) | Crystal form ([1]; 3 months) | Crystal form ([1]; 6 months) | Crystal form ([2]; 0 month) | Crystal form ([2]; 3 months) | Crystal form ([2]; 6 months) | Crystal form ([2]; 9 months) | Crystal form ([2]; 12 months) | Crystal form ([2]; 18 months) | Crystal form ([2]; 24 months) | Crystal form ([2]; 36 months)
99.8%: Content (calculated by dried product )(%) ([2]; 3 months, hydrochloride)
0.26%: ImpurityA(%) ([2]; 12 months, hydrochloride)
98.7%: content(%) ([1]; 0 month, hydrochloride) | Content (calculated by dried product )(%) ([2]; 0 month, hydrochloride)
0.32%: Impurity A (%) ([1]; 0 month, hydrochloride) | ImpurityA(%) ([2]; 0 month, hydrochloride)
